From publication PMC5903829 (Experimental & Molecular Medicine, 2018)

System: Caco-2 cells
Experiment: Trans-epithelial electrical resistance in Caco-2 monolayers
Type: cell-based, human
Details: compound C 30 min pre-treatment, then LPS or LPS+AmEV

Structure (SMILES): c1cc(-c2cnn3cc(-c4ccc(OCCN5CCCCC5)cc4)cnc23)ccn1 [compound C]
- AmEVs' ability to improve LPS-induced loss of barrier integrity (TEER) in the presence of AMPK inhibitor: abolished
